As usually defined, the IC50 is the concentration that gives 50% inhibition. A high value points to a need for much substance.

Among the data in BindingDB's records for doi:10.1021/cb600303y (Rutgers University, 2006) are IC50 values, retold here.

Each structure is given as a SMILES string.

The first assay concerns the target T1, Gag-Pol polyprotein [600-1028,C879S]/[600-1151,C879S] (Human immunodeficiency virus 1, UniProt P03366, C879S).
T1 construct: 600-1028; 600-1151
In words: Assay of RT RNH Activity. The conditions noted are these: pH 8; 37 °C. As to the method:
(§1) To assess the effect of inhibitors, RT RNH activity was measured using a FRET-based microplate fluorescence assay. Briefly, the RNA-DNA hybrid duplex was added to individual wells of a 96-well microplate containing test compound. Reactions were initiated by the addition of HIV-1 RT and allowed to proceed at 37 deg C for 30 min. Reactions were quenched by the addition of EDTA (0.5 M).
Take `COc1ccc2ccccc2c1/C=N/NC(=O)c1ccc(O)c(O)c1` [dihydroxy benzoyl naphthyl hydrazone (DHBNH)]: it took 500 nM to reach half-maximal inhibition (IC50).
`COc1ccc2ccccc2c1/C=N/NC(=O)c1ccc(N(C)C)cc1` [dihydroxy benzoyl naphthyl hydrazone (DHBNH) analogue, 4]: the IC50 came to 2000 nM.
On to `COc1ccc2ccccc2c1/C=N/NC(=O)c1ccc(Oc2ccccc2)cc1` [dihydroxy benzoyl naphthyl hydrazone (DHBNH) analogue, 7], for which the IC50 is 7000 nM.
For `COc1ccc2ccccc2c1/C=N/NC(=O)c1ccc(C)cc1` [dihydroxy benzoyl naphthyl hydrazone (DHBNH) analogue, 2], the midpoint of inhibition, the IC50, lay at 15000 nM.
For the compound `COc1ccc2ccccc2c1/C=N/NC(=O)c1ccccc1` [dihydroxy benzoyl naphthyl hydrazone (DHBNH) analogue, 1], the IC50 was 15000 nM.
On the same count and under the same terms, under `COc1ccc2ccccc2c1/C=N/NC(=O)c1ccc(-c2ccccc2)cc1` [dihydroxy benzoyl naphthyl hydrazone (DHBNH) analogue, 6] stands 5000 nM; under `COc1ccc2ccccc2c1/C=N/NC(=O)C1CCC(c2ccc(Cl)cc2)CC1` (stereo not drawn) [dihydroxy benzoyl naphthyl hydrazone (DHBNH) analogue, 8], 7500 nM; under `COc1ccc2ccccc2c1/C=N/NC(=O)c1ccc(C(C)(C)C)cc1` [dihydroxy benzoyl naphthyl hydrazone (DHBNH) analogue, 5], 3000 nM.
The compound `COc1ccc(C(=O)N/N=C/c2c(OC)ccc3ccccc23)cc1` [dihydroxy benzoyl naphthyl hydrazone (DHBNH) analogue, 3] gave an IC50 of 12000 nM.

The next assay addresses T2, Gag-Pol polyprotein [600-1028,D666N,K669R,T814F,K818Q,C879S]/[600-1151,D666N,K669R,T814F,K818Q,C879S] (Human immunodeficiency virus 1, UniProt P03366, C879S/D666N/K669R/K818Q/T814F).
T2 construct: 600-1028; 600-1151
In words: Assay of RT RNH Activity.
Details: not given
As to the method: as §1
The compound `COc1ccc2ccccc2c1/C=N/NC(=O)c1ccc(O)c(O)c1` [dihydroxy benzoyl naphthyl hydrazone (DHBNH)] gave a 50% inhibitory concentration (IC50) of 500 nM.

Another assay deals with T3, Gag-Pol polyprotein [600-1028,L699I,K702N,C879S]/[600-1151,L699I,K702N,C879S] (Human immunodeficiency virus 1, UniProt P03366, C879S/K702N/L699I).
T3 construct: 600-1028; 600-1151
In words: Assay of RT RNH Activity.
Details: not given
As to the method: as §1
`COc1ccc2ccccc2c1/C=N/NC(=O)c1ccc(O)c(O)c1` [dihydroxy benzoyl naphthyl hydrazone (DHBNH)] had an IC50 of 700 nM.

The next assay deals with T4, Gag-Pol polyprotein [600-1028,V705A,Y780C,C879S]/[600-1151,V705A,Y780C,C879S] (Human immunodeficiency virus 1, UniProt P03366, C879S/V705A/Y780C).
T4 construct: 600-1028; 600-1151
In words: Assay of RT RNH Activity.
Details: not given
As to the method:
as §1
Consider `COc1ccc2ccccc2c1/C=N/NC(=O)c1ccc(O)c(O)c1` [dihydroxy benzoyl naphthyl hydrazone (DHBNH)], for which half-maximal inhibition (IC50) was put at 850 nM.

A further assay concerns the target T5, Gag-Pol polyprotein [600-1028,Y780C]/[600-1151,Y780C] (Human immunodeficiency virus 1, UniProt P03366, Y780C).
T5 construct: 600-1028; 600-1151
In words: Assay of RT RNH Activity.
Details: not given
On the procedure: as §1
`COc1ccc2ccccc2c1/C=N/NC(=O)c1ccc(O)c(O)c1` [dihydroxy benzoyl naphthyl hydrazone (DHBNH)] returned a concentration for half-maximal inhibition (IC50) of 650 nM.

The target in the next assay is T6, Gag-Pol polyprotein [600-1028,Y787L]/[600-1151,Y787L] (Human immunodeficiency virus 1, UniProt P03366, Y787L).
T6 construct: 600-1028; 600-1151
In words: Assay of RT RNH Activity.
Details: not given
As to the method: as §1
As to `COc1ccc2ccccc2c1/C=N/NC(=O)c1ccc(O)c(O)c1` [dihydroxy benzoyl naphthyl hydrazone (DHBNH)], the IC50 was 1200 nM.

The target of the next assay is T1, Gag-Pol polyprotein [600-1028,C879S]/[600-1151,C879S]. In words: Assay of RT RNA-Dependent DNA Polymerase (RDDP) Activity. As to conditions: pH 7.8; 37 °C. As to the method: HIV-1 RT RDDP activity was generally determined by a fixed time assay. Briefly, reaction mixtures contained p51/p66 RT, template-primer, and [3H]-TTP substrate. Aliquots of DMSO solutions containing the inhibitor were added such that the final DMSO concentration was < 2%. Reaction assays were incubated at 37 deg C for 10-20 min and then quenched with sodium pyrophosphate in 10% trichloroacetic acid (TCA). The samples were then filtered on Whatman 934-AH glass fiber filters and washed with 10% TCA and ethanol, and the radioactivity determined by liquid scintillation spectrometry.
`COc1ccc2ccccc2c1/C=N/NC(=O)c1ccc(O)c(O)c1` [dihydroxy benzoyl naphthyl hydrazone (DHBNH)] showed an IC50 of more than 25000 nM.
On the same count and under the same terms, with `COc1ccc2ccccc2c1/C=N/NC(=O)c1ccc(N(C)C)cc1` [dihydroxy benzoyl naphthyl hydrazone (DHBNH) analogue, 4] the figure was more than 50000 nM; with `COc1ccc2ccccc2c1/C=N/NC(=O)c1ccc(Oc2ccccc2)cc1` [dihydroxy benzoyl naphthyl hydrazone (DHBNH) analogue, 7], 400 nM.
Regarding `COc1ccc2ccccc2c1/C=N/NC(=O)c1ccc(C)cc1` [dihydroxy benzoyl naphthyl hydrazone (DHBNH) analogue, 2], the IC50 is more than 50000 nM.
For `COc1ccc2ccccc2c1/C=N/NC(=O)c1ccccc1` [dihydroxy benzoyl naphthyl hydrazone (DHBNH) analogue, 1], the IC50 is more than 50000 nM.
On the same count and under the same terms, under `COc1ccc2ccccc2c1/C=N/NC(=O)c1ccc(-c2ccccc2)cc1` [dihydroxy benzoyl naphthyl hydrazone (DHBNH) analogue, 6] stands 500 nM.
The same measure, in the same setting: with `COc1ccc2ccccc2c1/C=N/NC(=O)C1CCC(c2ccc(Cl)cc2)CC1` (stereo not drawn) [dihydroxy benzoyl naphthyl hydrazone (DHBNH) analogue, 8] the figure was 1000 nM; with `COc1ccc2ccccc2c1/C=N/NC(=O)c1ccc(C(C)(C)C)cc1` [dihydroxy benzoyl naphthyl hydrazone (DHBNH) analogue, 5], 2000 nM; with `COc1ccc(C(=O)N/N=C/c2c(OC)ccc3ccccc23)cc1` [dihydroxy benzoyl naphthyl hydrazone (DHBNH) analogue, 3], more than 50000 nM.
